The structures appear in SMILES notation.

Experiment [1] relates to human pancreatic chymotrypsin. As to the kind of experiment: Specificity assay, chymotrypsin. The format is biochemical. The settings on record: read-out: Chymotrypsin activity in the specificity assays (IC50). As to the method: (§1) The specificities of compounds of the present disclosure were determined against a variety of serine proteases: human neutrophil elastase (HNE), porcine pancreatic elastase (PPE) and human pancreatic chymotrypsin and one cysteine protease: human liver cathepsin B. In all cases a 96-well plate format protocol using a fluorometric Amino-Methyl-Coumarin (AMC) substrate specific for each enzyme was used as described previously (PCT Patent Application No. WO 00/09543) with some modifications to the serine protease assays. All enzymes were purchased from Sigma, EMDbiosciences while the substrates were from Bachem, Sigma and EMDbiosciences.
(§2) Compound concentrations varied from 100 to 0.4 μM depending on their potency. The enzyme assays were each initiated by addition of substrate to enzyme-inhibitor pre-incubated for 10 min at room temperature and hydrolysis to 15% conversion as measured on cytofluor. […]
(§3) The percentage of inhibition was calculated using the formula: […]

The target in experiment [2] is T1, human neutrophil elastase (HNE) (Homo sapiens, UniProt P08246).
T1 sequence (P08246 30-267): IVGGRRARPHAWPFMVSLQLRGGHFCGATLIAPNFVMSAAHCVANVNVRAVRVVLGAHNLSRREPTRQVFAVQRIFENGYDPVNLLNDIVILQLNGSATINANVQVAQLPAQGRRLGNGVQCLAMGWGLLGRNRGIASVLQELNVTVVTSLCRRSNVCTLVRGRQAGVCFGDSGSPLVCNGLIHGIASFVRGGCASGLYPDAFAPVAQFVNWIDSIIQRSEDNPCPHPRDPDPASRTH
Put plainly: Specificity assay, human neutrophil elastase. The experiment is classed as biochemical. The following applies: read-out: HLE activity in the specificity assays (IC50). The procedure: as §1, §2, §3

The term IC50 denotes the midpoint of a concentration-inhibition curve. As for `C=C[C@@H]1C[C@]1(NC(=O)[C@@H]1C[C@@H](OC(=O)N2Cc3cccc(F)c3C2)CN1C(=O)C(Nc1cc(C)cc(C)n1)C(C)C)C(=O)NS(=O)(=O)C1CC1` (single isomer, unassigned) [Compound 2A], the IC50 in experiment [1] was 2.1 µM; in experiment [2] it was 4.6 µM.

The values are drawn from patent US20090285774A1, “Hepatitis C Virus Inhibitors” (Bristol-Myers Squibb Company, priority 2008, published 2009).
